In patent US9700545B2 (Salix Pharmaceuticals, Ltd, priority 2008, dated 2017):

How the values were obtained:
Assay type in all cases: physicochemical
[1] = Automated moisture sorption/desorption (MB / DVS); details: for XRPD following DVS: line after DVS; for hygroscopicity: result in words; for form by XRPD after moisture sorption/desorption: sorption from 5% RH to 95% RH, desorption from 95% RH to 5% RH
Method: Based on the data, relative humidity stressing studies of the two amorphous materials at 40° C./75% RH are recommended. Moisture sorption/desorption data were collected on a VTI SGA-100 Vapor Sorption Analyzer. Sorption and desorption data were collected over a range of 5% to 95% relative humidity (RH) at 10% RH intervals under a nitrogen purge. Samples were not dried prior to analysis. Equilibrium criteria used for analysis were less than 0.0100% weight change in 5 minutes, with a maximum equilibration time of 3 hours if the weight criterion was not met. Data were not corrected for the initial moisture content of the samples. NaCl and PVP were used as calibration standards.

[2] = Vapor stress / vapor diffusion stressing of amorphous materials, form by XRPD; details: methanol and tetrahydrofuran, both with water as antisolvent
Method: (§1) Vapor stressing experiments were done on amorphous material from two preparations: lyophilization from p-dioxane:water 1:1 and crash precipitation from ethyl acetate with heptane. […] The majority of the stressed samples appeared as clear red solutions after 6 days. Those solutions were placed in vials of antisolvent for vapor diffusion. Dry and wet milling experiments were conducted on amorphous materials from the two preparations mentioned above. Amorphous materials were recovered from the dry milling experiments.

[3] = Milling experiments on amorphous materials, form by XRPD; details: 10 min. at 30 Hz, scraped sides
Method: as §1
A solid sample of rifaximin was charged to a milling container with a milling ball. […] Solids were scraped from the sides of the vial after each interval.

Structure (SMILES): CO[C@H]1/C=C/O[C@@]2(C)Oc3c(C)c(O)c4c(O)c(c5c(nc6cc(C)ccn65)c4c3C2=O)NC(=O)/C(C)=C\C=C\[C@H](C)[C@H](O)[C@@H](C)[C@@H](O)[C@@H](C)[C@H](OC(C)=O)[C@@H]1C [Amorphous rifaximin]
- wt loss upon equilibration at 5% RH ([1]; MB, Table 5, milled amorphous): 0.7% wt loss upon equilibration
- XRPD following DVS ([1]; Table 2, first sample block (lyophilization sample)): no peaks, possibly amorphous
- XRPD following DVS ([1]; Table 2, second sample block (crash precipitation sample)): no peaks, possibly amorphous
- weight gain under 95% RH ([1]; amorphous rifaximin made by milling, moisture balance): 11.6%
- hygroscopicity [1]: hygroscopic
- form by XRPD after moisture sorption/desorption [1]: amorphous
- form by XRPD after moisture sorption/desorption ([1]; listed as Amorphous): amorphous
- form by XRPD after moisture sorption/desorption ([1]; listed as Rifaximin Amorphous): amorphous
- form obtained in vapor diffusion experiments [2]: Form β

Structure (SMILES): CO[C@H]1/C=C/O[C@@]2(C)Oc3c(C)c(O)c4c(O)c(c5c(nc6cc(C)ccn65)c4c3C2=O)NC(=O)/C(C)=C\C=C\[C@H](C)[C@H](O)[C@@H](C)[C@@H](O)[C@@H](C)[C@H](OC(C)=O)[C@@H]1C [crash amorphous rifaximin]
- hygroscopicity [1]: moderately hygroscopic
- form by XRPD after moisture sorption/desorption [1]: Crystallization was not observed
- XRPD Result after dry milling [3]: amorphous

Structure (SMILES): CO[C@H]1/C=C/O[C@@]2(C)Oc3c(C)c(O)c4c(O)c(c5c(nc6cc(C)ccn65)c4c3C2=O)NC(=O)/C(C)=C\C=C\[C@H](C)[C@H](O)[C@@H](C)[C@@H](O)[C@@H](C)[C@H](OC(C)=O)[C@@H]1C [lyophilized amorphous rifaximin]
- hygroscopicity [1]: moderately hygroscopic
- form by XRPD after moisture sorption/desorption [1]: Crystallization was not observed
- XRPD Result after dry milling [3]: amorphous

Structure (SMILES): CO[C@H]1/C=C/O[C@@]2(C)Oc3c(C)c(O)c4c(O)c(c5c(nc6cc(C)ccn65)c4c3C2=O)NC(=O)/C(C)=C\C=C\[C@H](C)[C@H](O)[C@@H](C)[C@@H](O)[C@@H](C)[C@H](OC(C)=O)[C@@H]1C [α dry]
- form by XRPD after moisture sorption/desorption [1]: α dry
